Drawing on US20230118467A1, “COSMETIC OR PHARMACEUTICAL USE OF AVENANTHRAMIDE L” (priority 2020, published 2023), this text covers Inhibition of oxidation and inhibition for one molecule.

This test concerns Primary human dermal fibroblasts. The test is described as follows: Cellular antioxidant activity (DCF-DA assay). It is filed as cell-based. The settings on record: 24 h incubation, prooxidant challenge 1 mM 1 h. The method, then: The DCF-DA assay is a fluorometric microplate assay for the detection of oxidative stress by detecting oxidation of 2′,7′-dichlorofluorescein-diacetate (DCF-DA) into the highly fluorescent compound 2′,7′-dichlorofluorescein (DCF) due to the presence of reactive oxygen species (ROS). The DCF-DA assay allows the cellular antioxidant activity of a substance to be determined.
Primary human dermal fibroblasts were seeded in a 96-well microtiter plate at a concentration of 0.5×10^4 cells/well. Cultivation took place at 37° C. and 5% CO2 in DMEM, enriched with 10% foetal calf serum. Confluence was supposed to be around 70% at the time, the incubation with the test substances began. The test substances were applied to the cells at a concentration of 500 μM. After 24 h of incubation, 100 μL H2DCF-DA-solution (10 μM) incl. DAPI (1:1000) was added to all samples (excluded the background-control) and incubated for one hour to deesterify the H2DCF-DA by cellular esterases. The resulting H2DCF was thereby trapped inside the cell. After the incubation, the cells were washed and the prooxidant challenge was set (1 mM, 1 h). The resulting fluorescence was read at λex 504 nm; λem 524 nm. An increased level of ROS (reactive oxygen species) led to an increased amount of fluorescence.
The inhibition of the oxidation in the presence of test substances was calculated according to the following equation: […]
The abbreviations have the following meanings: • RFU test substance: Relative fluorescence units of the wells with test substance and with cells • RFU control: Relative fluorescence units of the wells without test substance, but with cells • RFU without cells: Relative fluorescence units of the wells without test substance and without cells (blank)

On to `O=C(/C=C/C=C/c1ccc(O)cc1)Nc1ccc(O)cc1C(=O)O` [Avn L, 5-hydroxy-2-[(2E,4E)-5-(4-hydroxyphenyl)penta-2,4-dienamido]benzoic acid], for which the Inhibition of oxidation result (500 μM) was “higher antioxidant activity than avenanthramide A”. Further, the inhibition at 500 µM (Homo sapiens, Fibroblast, read-out: Inhibition of oxidation) came to 49 ± 7%.

As a reminder, the inhibition is the drop in the measured response relative to a control, in per cent.
